The target in assay [1] is Cyclin-dependent kinase 5/CDK5 activator 1 (Homo sapiens, UniProt Q00535). Type of assay: protein-complex assay.
Description: Inhibitory activity against cyclin-dependent kinase 5/p25
For assay [2], the target named is Cyclin-dependent kinase 1/cyclin B (Homo sapiens, UniProt O95067+P06493+P14635+Q8WWL7). Type of assay: cell-based, Marthasterias glacialis, Oocyte.
Chain of Cyclin-dependent kinase 1/cyclin B (P06493 whole entry): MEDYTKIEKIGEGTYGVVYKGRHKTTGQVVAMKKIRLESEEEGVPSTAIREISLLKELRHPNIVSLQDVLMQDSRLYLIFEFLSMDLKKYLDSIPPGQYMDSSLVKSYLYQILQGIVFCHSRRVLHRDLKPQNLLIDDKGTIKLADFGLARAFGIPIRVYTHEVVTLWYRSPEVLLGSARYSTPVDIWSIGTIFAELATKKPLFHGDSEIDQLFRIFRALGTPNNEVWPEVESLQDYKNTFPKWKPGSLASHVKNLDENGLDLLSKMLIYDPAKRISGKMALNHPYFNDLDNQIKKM
Chain of Cyclin-dependent kinase 1/cyclin B (P14635 whole entry): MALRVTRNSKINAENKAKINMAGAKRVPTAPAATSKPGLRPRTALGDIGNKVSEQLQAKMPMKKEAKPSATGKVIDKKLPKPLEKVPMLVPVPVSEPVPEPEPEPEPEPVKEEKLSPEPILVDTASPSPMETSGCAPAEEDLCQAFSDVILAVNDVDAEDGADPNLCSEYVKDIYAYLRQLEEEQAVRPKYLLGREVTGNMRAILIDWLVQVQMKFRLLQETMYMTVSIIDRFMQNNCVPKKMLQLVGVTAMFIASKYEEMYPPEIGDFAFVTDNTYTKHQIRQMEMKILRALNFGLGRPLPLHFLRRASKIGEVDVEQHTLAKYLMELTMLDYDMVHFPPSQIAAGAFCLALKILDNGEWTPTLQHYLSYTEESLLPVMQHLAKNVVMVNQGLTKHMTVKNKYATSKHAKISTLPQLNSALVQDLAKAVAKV
Chain of Cyclin-dependent kinase 1/cyclin B (Q8WWL7 whole entry): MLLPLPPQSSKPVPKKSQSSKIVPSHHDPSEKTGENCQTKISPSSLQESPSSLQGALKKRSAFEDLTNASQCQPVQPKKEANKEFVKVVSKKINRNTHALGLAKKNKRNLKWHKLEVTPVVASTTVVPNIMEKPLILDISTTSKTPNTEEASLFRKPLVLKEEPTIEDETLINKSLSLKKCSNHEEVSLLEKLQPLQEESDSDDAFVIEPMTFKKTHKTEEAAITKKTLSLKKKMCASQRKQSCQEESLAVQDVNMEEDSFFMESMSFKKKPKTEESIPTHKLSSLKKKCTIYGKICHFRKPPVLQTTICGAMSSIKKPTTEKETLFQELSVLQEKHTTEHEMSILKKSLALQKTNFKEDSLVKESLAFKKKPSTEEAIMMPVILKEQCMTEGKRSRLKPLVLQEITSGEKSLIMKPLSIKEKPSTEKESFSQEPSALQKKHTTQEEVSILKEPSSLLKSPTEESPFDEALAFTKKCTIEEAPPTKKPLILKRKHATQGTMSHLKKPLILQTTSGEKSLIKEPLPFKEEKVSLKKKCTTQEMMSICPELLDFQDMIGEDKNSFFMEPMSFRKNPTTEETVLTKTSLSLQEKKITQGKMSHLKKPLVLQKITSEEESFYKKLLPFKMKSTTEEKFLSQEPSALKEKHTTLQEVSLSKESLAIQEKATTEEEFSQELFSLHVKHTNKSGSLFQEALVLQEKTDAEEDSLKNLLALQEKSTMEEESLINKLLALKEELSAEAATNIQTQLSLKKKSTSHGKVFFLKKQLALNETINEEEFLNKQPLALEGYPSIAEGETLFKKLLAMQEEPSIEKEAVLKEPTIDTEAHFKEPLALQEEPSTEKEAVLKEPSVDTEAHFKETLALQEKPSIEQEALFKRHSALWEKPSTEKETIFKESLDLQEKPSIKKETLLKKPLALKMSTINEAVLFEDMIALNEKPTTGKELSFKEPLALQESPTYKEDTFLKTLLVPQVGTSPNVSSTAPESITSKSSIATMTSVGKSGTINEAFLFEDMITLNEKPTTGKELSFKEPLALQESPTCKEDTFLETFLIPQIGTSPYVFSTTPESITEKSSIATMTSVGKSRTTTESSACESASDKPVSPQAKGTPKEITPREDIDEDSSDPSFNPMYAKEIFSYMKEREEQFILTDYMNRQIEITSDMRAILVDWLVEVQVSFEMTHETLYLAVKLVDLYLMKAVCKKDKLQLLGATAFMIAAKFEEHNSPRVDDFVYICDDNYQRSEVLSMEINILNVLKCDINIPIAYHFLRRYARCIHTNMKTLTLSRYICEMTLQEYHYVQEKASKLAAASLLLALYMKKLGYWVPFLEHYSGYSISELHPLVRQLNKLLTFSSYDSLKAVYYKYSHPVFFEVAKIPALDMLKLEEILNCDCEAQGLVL
Chain of Cyclin-dependent kinase 1/cyclin B (O95067 whole entry): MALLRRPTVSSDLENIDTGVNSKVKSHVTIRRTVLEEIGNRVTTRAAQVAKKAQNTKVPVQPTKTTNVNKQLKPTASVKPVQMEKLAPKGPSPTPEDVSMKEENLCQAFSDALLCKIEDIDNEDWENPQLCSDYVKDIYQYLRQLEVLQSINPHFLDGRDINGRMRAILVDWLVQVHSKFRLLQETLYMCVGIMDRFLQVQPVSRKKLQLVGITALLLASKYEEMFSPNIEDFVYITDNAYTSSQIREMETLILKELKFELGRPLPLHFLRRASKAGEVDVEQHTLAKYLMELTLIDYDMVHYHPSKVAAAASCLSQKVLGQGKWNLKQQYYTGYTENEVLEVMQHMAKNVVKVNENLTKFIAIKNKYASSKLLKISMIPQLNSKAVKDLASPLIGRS
Description: Inhibitory activity against cyclin dependent kinase 1-cyclinB extracted from M phase starfish (Marthasterias glacialis) oocytes

Chain of Cyclin-dependent kinase 5/CDK5 activator 1 (Q00535 whole entry): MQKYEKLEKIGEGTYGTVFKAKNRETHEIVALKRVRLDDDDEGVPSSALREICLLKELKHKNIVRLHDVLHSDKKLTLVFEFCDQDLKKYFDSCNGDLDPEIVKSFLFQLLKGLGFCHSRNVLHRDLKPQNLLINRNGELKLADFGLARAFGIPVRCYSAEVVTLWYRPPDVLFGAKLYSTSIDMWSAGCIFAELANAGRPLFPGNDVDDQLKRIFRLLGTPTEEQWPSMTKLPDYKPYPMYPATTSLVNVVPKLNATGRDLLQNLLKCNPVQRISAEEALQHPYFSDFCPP
Chain of Cyclin-dependent kinase 5/CDK5 activator 1 (Q15078 whole entry, further chain): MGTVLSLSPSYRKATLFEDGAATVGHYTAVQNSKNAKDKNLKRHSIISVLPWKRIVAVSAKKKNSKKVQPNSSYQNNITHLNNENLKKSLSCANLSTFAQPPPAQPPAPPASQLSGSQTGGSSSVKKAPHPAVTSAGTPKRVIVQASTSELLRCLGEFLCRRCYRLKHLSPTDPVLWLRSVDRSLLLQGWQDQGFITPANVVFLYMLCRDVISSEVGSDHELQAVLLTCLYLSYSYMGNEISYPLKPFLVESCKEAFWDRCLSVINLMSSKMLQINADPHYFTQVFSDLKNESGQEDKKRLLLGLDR

For orientation: IC50 means the concentration that inhibits the measured activity by half. A high value points to a need for much substance. `COc1ccc2c(c1)NC(=O)Cc1c-2[nH]c2ccc([N+](=O)[O-])cc12`: the IC50 in assay [1] is 0.63 µM; in assay [2], 1 µM.

Take `N#Cc1ccc2[nH]c3c(c2c1)CC(=O)Nc1ccsc1-3`: inhibition in assay [2] was half-maximal at 0.075 µM (IC50).

In turn, `Cc1ccc2[nH]c3c(c2c1)CC(=O)Nc1ccsc1-3` gave a half-maximal inhibitory concentration (IC50) in assay [1] of 40 µM.

On to `O=C1Cc2c([nH]c3ccc([N+](=O)[O-])cc23)-c2sccc2N1`, for which the results for the IC50 in assay [1] and in assay [2] were 0.1 µM and 0.08 µM, respectively.

As for `O=C1Cc2c([nH]c3ccc(C(F)(F)F)cc23)-c2cccnc2N1`, the IC50 in assay [1] is 13 µM; in assay [2], 6 µM.

Turning to `COc1ccc2[nH]c3c(c2c1)CC(=O)Nc1ncccc1-3`, the half-inhibitory concentration (IC50) is 420 µM in assay [1] and 89.9 µM in assay [2].

Take `O=[N+]([O-])c1ccc2[nH]c3c(c2c1)CC(=S)Nc1ccccc1-3`: the IC50 was 1.7 µM in assay [1] and 1.3 µM in assay [2].

With `Cc1ccc2[nH]c3c(c2c1)CC(=O)Nc1ncccc1-3`, the IC50 in assay [1] was 430 µM; in assay [2], 200 µM.

For `O=C1Cc2c([nH]c3ccc(Br)cc23)-c2sccc2N1`, inhibition in assay [1] was half-maximal at 4 µM (IC50).

Consider `CSC1=Nc2ccccc2-c2c(c3cc([N+](=O)[O-])ccc3n2C)C1`, for which the half-maximal inhibitory concentration (IC50) in assay [1] is 849 µM; in assay [2], 230 µM.

`SC1=Nc2ccccc2-c2cc(-c3ccccn3)cc(-c3cccs3)c2C1`: the IC50 in assay [2] was 33 µM.

On to `O=C1Cc2c([nH]c3ccc(Cl)cc23)-c2cccnc2N1`, for which the IC50 in assay [1] is 42 µM; in assay [2], 23 µM.

Take `O=C1Cc2c([nH]c3ncccc23)-c2ccccc2N1`: in assay [1], the IC50 is 3.3 µM.

With `CC(=O)Cc1ccc2c(c1)-c1[nH]c3ccc(C(F)(F)F)cc3c1CC(=O)N2`, the IC50 in assay [1] is 0.42 µM.

`O=C1Cc2c([nH]c3ccc(Cl)cc23)-c2sccc2N1` had a half-inhibitory concentration (IC50) in assay [1] of 5 µM.

The values are drawn from ChEMBL document CHEMBL1148295, “Evaluation and comparison of 3D-QSAR CoMSIA models for CDK1, CDK5, and GSK-3 inhibition by paullones” (J Med Chem, 2004).
